Drawing on PubChem BioAssay AID1259408 (Genetic Toxicology Data Bank (GENE-TOX), 2018), this text covers mutagenic call and call for 22 compounds.

The source made the active and inactive calls. The rule behind the calls is not given here.

In the data set the test system is GENE-TOX genotoxicity assays, various organisms and cells. The experiment in a line: GENE-TOX mutagenicity studies. Conditions: for call: Assay Type: In vivo carcinogenicity studies, Assay Code: CCG+.
Setting [1] is: Species/Cell Type: Drosophila melanogaster, Assay Type: Sex-linked recessive lethal gene mutation, Assay Code: SRL-, Evaluation Type: Evaluation A (Pre-1980).
[2] abbreviates: Species/Cell Type: Nonhuman, Evaluation Type: Evaluation A (Pre-1980).
Setting [3] is: Species/Cell Type: Nonhuman, Assay Type: Sister-chromatid exchange (SCE) in vitro, Assay Code: SC2T, Evaluation Type: Evaluation B (Post-1980).
Setting [4] is: Species/Cell Type: Drosophila melanogaster, Assay Type: Sex-linked recessive lethal gene mutation, Assay Code: SRL+, Evaluation Type: Evaluation A (Pre-1980).
[5] abbreviates: Species/Cell Type: Salmonella typhimurium (one or more of the five standard strains: TA98, TA100, TA1535, TA1537, and TA1538), Assay Type: Histidine reverse gene mutation, Ames assay, Assay Code: SAL+, Evaluation Type: Evaluation A (Pre-1980).
The mark [6] stands for this setting: Species/Cell Type: Bacillus subtilis (H17 vs M45T), Assay Type: Rec-assay, spot test, DNA effects (bacterial DNA repair), Assay Code: REX+, Evaluation Type: Evaluation A (Pre-1980).
The mark [7] stands for this setting: Species/Cell Type: Escherichia coli WP2, Assay Type: Tryptophan reverse gene mutation, Assay Code: WP2+, Evaluation Type: Evaluation A (Pre-1980).
[8] abbreviates: Species/Cell Type: Bacillus subtilis (H17 vs M45), Assay Type: Rec-assay, spot test, DNA effects (bacterial DNA repair), Assay Code: REWT, Evaluation Type: Evaluation A (Pre-1980).
The mark [9] stands for this setting: Species/Cell Type: Escherichia coli WP2 UVRA, Assay Type: Tryptophan reverse gene mutation, Assay Code: WPU-*, Activation: With metabolic activation, Evaluation Type: Evaluation A (Pre-1980).
Setting [10] is: Species/Cell Type: Escherichia coli polA (W3119 vs P3478), Assay Type: Rec-assay, DNA effects (bacterial DNA repair), Assay Code: RE1T, Evaluation Type: Evaluation A (Pre-1980).
Setting [11] is: Species/Cell Type: Human, Assay Type: Sister-chromatid exchange (SCE) in vitro, Assay Code: SC1+D, Dose Response: With dose response, Evaluation Type: Evaluation B (Post-1980).
Where [12] appears, read: Species/Cell Type: Salmonella typhimurium (one or more of the five standard strains: TA98, TA100, TA1535, TA1537, and TA1538), Assay Type: Histidine reverse gene mutation, Ames assay, Assay Code: SALT, Evaluation Type: Evaluation A (Pre-1980).
Where [13] appears, read: Species/Cell Type: Saccharomyces cerevisiae, Assay Type: Mitotic recombination or gene conversion, Assay Code: YEC-, Evaluation Type: Evaluation A (Pre-1980).
Where [14] appears, read: Species/Cell Type: Human diploid fibroblasts, Assay Type: Unscheduled DNA synthesis (UDS) in vitro, DNA effects, Assay Code: UDH+, Evaluation Type: Evaluation A (Pre-1980).
Where [15] appears, read: Species/Cell Type: Human lymphocytes, Assay Type: Sister-chromatid exchange (SCE) in vitro, Assay Code: SCLT, Evaluation Type: Evaluation B (Post-1980).
The mark [16] stands for this setting: Species/Cell Type: Human, Assay Type: Sister-chromatid exchange (SCE) in vitro, Assay Code: SC1T, Evaluation Type: Evaluation B (Post-1980).
Where [17] appears, read: Species/Cell Type: Chinese hamster lung (V79) cells, Assay Type: Forward gene mutation at the HPRT or ouabain locus, Assay Code: V79-*, Activation: With metabolic activation, Evaluation Type: Evaluation A (Pre-1980).
Where [18] appears, read: Species/Cell Type: Chinese hamster lung (V79) cells, Assay Type: Forward gene mutation at the HPRT or ouabain locus, Assay Code: V79+, Evaluation Type: Evaluation A (Pre-1980).

For `O=C(O)CN(CC(=O)O)CC(=O)O`, the mutagenic call reads like this: under setting [1], “inactive; negative”; (Species/Cell Type: Mouse, Sex: Male, Assay Type: Heritable translocation test, chromosome aberrations, Assay Code: HTT-, Evaluation Type: Evaluation A (Pre-1980)) “inactive; negative”; under setting [3], “no conclusion”; (Species/Cell Type: Salmonella typhimurium (one or more of the five standard strains: TA98, TA100, TA1535, TA1537, and TA1538), Assay Type: Histidine reverse gene mutation, Ames assay, Assay Code: SALT, Evaluation Type: Evaluation B (Post-1980)) “no conclusion”; (Species/Cell Type: Vicia faba, Assay Type: Chromosome aberrations, Assay Code: VIC+, Evaluation Type: Evaluation A (Pre-1980)) “active; positive”. Under setting [2], the call was “active; positive”.
`O=NN1CC=CCC1`: the mutagenic call runs as follows: (Species/Cell Type: Drosophila melanogaster, Assay Type: Aneuploidy, partial sex chromosome loss, chromosome aberrations, Assay Code: DAPT, Evaluation Type: Evaluation A (Pre-1980)) “no conclusion”; (Species/Cell Type: Drosophila melanogaster, Assay Type: Aneuploidy, whole sex chromosome loss, chromosome aberrations, Assay Code: DACT, Evaluation Type: Evaluation A (Pre-1980)) “no conclusion”; under setting [4], “active; positive”; under setting [5], “active; positive”.
On to `CCN(CC)C(=O)OC1(SC)C(=O)c2ccccc2C1=O`, for which, under “Species/Cell Type: Salmonella typhimurium, Assay Type: Forward and reverse gene mutation, host-mediated assay, Assay Code: HMA+, Evaluation Type: Evaluation A (Pre-1980)”, the mutagenic call is “active; positive”.
With `CN(OC(=O)c1ccccc1)c1ccc(N=Nc2ccccc2)cc1`, the mutagenic call (Species/Cell Type: Drosophila melanogaster, Assay Type: Sex-linked recessive lethal gene mutation, Assay Code: SRLT, Evaluation Type: Evaluation A (Pre-1980)) was “no conclusion”.
With `Cn1c(CCCC(=O)O)nc2cc(N(CCCl)CCCl)ccc21`, the mutagenic call (Species/Cell Type: Nonhuman, Assay Type: Sister-chromatid exchange (SCE) in vitro, Assay Code: SC2+D, Dose Response: With dose response, Evaluation Type: Evaluation B (Post-1980)) is “active; positive”.
Turning to `OC[C@H]1O[C@@](CO)(O[C@H]2O[C@H](CO)[C@@H](O)[C@H](O)[C@H]2O)[C@@H](O)[C@@H]1O`, the mutagenic call by setting is: (Species/Cell Type: Mammalian polychromatic erythrocytes, Assay Type: Micronucleus test, chromosome aberrations, Assay Code: MNTT, Evaluation Type: Evaluation A (Pre-1980)) “no conclusion”; under setting [3], “no conclusion”.
On to `OC[C@@H](O)[C@@H](O[C@H]1O[C@H](CO)[C@@H](O)[C@H](O)[C@H]1O)[C@H](O)[C@@H](O)CO`, for which the mutagenic call (Species/Cell Type: Mammalian polychromatic erythrocytes, Assay Type: Micronucleus test, chromosome aberrations, Assay Code: MNT-, Evaluation Type: Evaluation B (Post-1980)) is “inactive; negative”.
On to `CC(C)Oc1ccccc1OC(=O)N(C)N=O`, for which the mutagenic call under setting [6] was “active; positive”; the mutagenic call under setting [7] is “active; positive”; the mutagenic call (Species/Cell Type: Saccharomyces cerevisiae, Assay Type: Mitotic recombination or gene conversion, Assay Code: YEC+, Evaluation Type: Evaluation A (Pre-1980)) is “active; positive”; the mutagenic call under setting [5] was “active; positive”.
As to `CCOP(=S)(OCC)SCSCC`, the mutagenic call by setting is: under setting [8], “no conclusion”; under setting [1], “inactive; negative”; under setting [9], “inactive; negative”; under setting [10], “no conclusion”; (Species/Cell Type: Hordeum vulgare (barley), Assay Type: Chromosome aberrations, Assay Code: HOC+D, Dose Response: With dose response, Evaluation Type: Evaluation A (Pre-1980)) “active; positive”; (Species/Cell Type: Human diploid fibroblasts, Assay Type: Unscheduled DNA synthesis (UDS) in vitro, DNA effects, Assay Code: UDH-, Evaluation Type: Evaluation A (Pre-1980)) “inactive; negative”. Besides, the mutagenic call is, setting by setting: under setting [11], “active; positive”; (Species/Cell Type: Mammalian polychromatic erythrocytes, Assay Type: Micronucleus test, chromosome aberrations, Assay Code: MNT+U, Dose Response: Unconfirmed positive response, Evaluation Type: Evaluation B (Post-1980)) “active; positive”; (Species/Cell Type: Saccharomyces cerevisiae, Assay Type: Mitotic recombination or gene conversion, Assay Code: YEH-, Evaluation Type: Evaluation A (Pre-1980)) “inactive; negative”; under setting [12], “no conclusion”.
With `Cc1cc(C)c(N=Nc2c(O)c(S(=O)(=O)O)cc3cc(S(=O)(=O)O)ccc23)cc1C`, the mutagenic call under setting [8] is “no conclusion”; the mutagenic call (Species/Cell Type: Bacillus subtilis (H17 vs M45T), Assay Type: Rec-assay, spot test, DNA effects (bacterial DNA repair), Assay Code: REXT, Evaluation Type: Evaluation A (Pre-1980)) is listed as “no conclusion”; the mutagenic call under setting [13] is “inactive; negative”; the mutagenic call (Species/Cell Type: Salmonella typhimurium (one or more of the five standard strains: TA98, TA100, TA1535, TA1537, and TA1538), Assay Type: Histidine reverse gene mutation, Ames assay, Assay Code: SAL-, Evaluation Type: Evaluation A (Pre-1980)) was “inactive; negative”. Besides, the call under setting [2] is “active; positive”.
For the compound `CNC(=O)/C=C(\C)OP(=O)(OC)OC`, the mutagenic call was “no conclusion” under setting [8]; “inactive; negative” under setting [1]; “inactive; negative” under setting [9]; “no conclusion” under setting [10]; “active; positive” under setting [14]; “active; positive” under setting [11]. For the same compound, the mutagenic call reads like this: (Species/Cell Type: Mammalian polychromatic erythrocytes, Assay Type: Micronucleus test, chromosome aberrations, Assay Code: MNT+, Evaluation Type: Evaluation B (Post-1980)) “active; positive”; (Species/Cell Type: Saccharomyces cerevisiae, Assay Type: Mitotic recombination or gene conversion, Assay Code: YEH+, Evaluation Type: Evaluation A (Pre-1980)) “active; positive”; under setting [12], “no conclusion”.
Consider `NC(=O)N1c2ccccc2C=Cc2ccc(O)cc21`, for which the mutagenic call is recorded as “no conclusion” under setting [15] and “no conclusion” under setting [16].
With `c1ccc2c(c1)Cc1c(c3ccccc3c3ccccc13)C2`, the mutagenic call (Species/Cell Type: Salmonella typhimurium (one or more of the five standard strains: TA98, TA100, TA1535, TA1537, and TA1538), Assay Type: Histidine reverse gene mutation, Ames assay, Assay Code: SAL+*, Activation: With metabolic activation, Evaluation Type: Evaluation A (Pre-1980)) is “active; positive”.
`Cc1cccc(OC(=O)N(C)N=O)c1`: the mutagenic call is “active; positive” under setting [6] and “active; positive” under setting [7].
Turning to `Cc1cc2c(C)c3ccccc3c(C)c2c2ccccc12`, the mutagenic call under setting [17] was “inactive; negative”.
As for `CC[C@@H](CO)NC(=O)[C@@H]1C=C2c3cccc4c3c(cn4C)C[C@H]2N(C)C1`, where the note is “Species/Cell Type: Rodents, Sex: Male, Assay Type: Dominant lethal test, Assay Code: DLT+, Evaluation Type: Evaluation A (Pre-1980)”, the mutagenic call is “active; positive”.
Consider `O[C@@H]1c2cccc3ccc4cc5ccccc5c(c4c23)[C@H]1O`, for which the mutagenic call reads like this: under setting [18], “active; positive”; under setting [12], “no conclusion”.
For the compound `O[C@@H]1[C@@H]2O[C@@H]2c2cc3c(ccc4ccccc43)cc2[C@H]1O`, the mutagenic call reads like this: under setting [18], “active; positive”; under setting [5], “active; positive”.
On to `COc1ccc2nc3cc(Cl)ccc3c(NCCCNCCCl)c2n1`, for which the mutagenic call (Species/Cell Type: Chinese hamster ovary (CHO) cells, Assay Type: Forward gene mutation at the HPRT locus, Assay Code: CHO+D, Dose Response: With dose response, Evaluation Type: Evaluation A (Pre-1980)) was “active; positive”.
In the case of `O=C1CC[C@@]2(O)[C@H]3Cc4ccc(O)c5c4[C@@]2(CCN3CC2CC2)[C@H]1O5`, the mutagenic call was “active; positive” under setting [4]; “inactive; negative” (Species/Cell Type: Drosophila melanogaster, Sex: Male, Assay Type: Heritable translocation test, chromosome aberrations, Assay Code: DHT-, Evaluation Type: Evaluation A (Pre-1980)); “active; positive” under setting [14]; “inactive; negative” under setting [13]; “no conclusion” under setting [12].
On to `Cc1c2ccccc2c(C)c2c1ccc1cccc(C)c12`, for which, under setting [17], the mutagenic call is “inactive; negative”.
On to `C=CCc1ccccc1O`, for which the mutagenic call runs as follows: under setting [15], “no conclusion”; under setting [16], “no conclusion”.
